These results are taken from article PMC8179178 (Chemical Science, 2021).

In series [1] the test system is MC38 cells. In words: MTT cell proliferation assay. Format: cell-based, murine. The note with it: Mus musculus, MC-38, read-out: Cytotoxicity (IC50).
Series [2] is described as follows: Solubility in PBS. The note with it: aqueous buffer. Format: physicochemical.
Series [3] relates to rats. The settings on record: given over 22 days; cited from earlier work.

In brackets after ≈: the same amount, converted by molar mass. Structures can show the parent of a compound that is named as a salt.

Consider `COc1cccc2c1C(=O)c1c(O)c3c(c(O)c1C2=O)C[C@@](O)(C(=O)CO)C[C@@H]3O[C@H]1C[C@H](N)[C@H](O)[C@H](C)O1` [Dox HCl, doxorubicin], for which the IC50 in series [1] worked out at 23 nM. Besides, the solubility in series [2] was found to be 3800 µg/mL. Moreover, in series [3], the “Multi-dose MTD of conventional Dox” value is 10 mg/kg.

Regarding `COc1cc([C@@H]2c3cc4c(cc3[C@@H](O[C@@H]3O[C@@H]5CO[C@@H](C)O[C@H]5[C@H](O)[C@H]3O)[C@H]3COC(=O)[C@H]23)OCO4)cc(OC)c1O` [ETP, etoposide], the IC50 in series [1] stood at 160 nM. Moreover, the concentration in solution in series [2] (solubility) came to 2800 µg/mL (≈ 4.76 mM).

For the molecule `Nc1ccn([C@@H]2O[C@H](CO)[C@@H](O)C2(F)F)c(=O)n1` [GCB HCl, gemcitabine], in series [1], the IC50 was 3 nM.

For `CC(=O)O[C@H]1C(=O)[C@@]2(C)[C@H]([C@H](OC(=O)c3ccccc3)[C@]3(O)C[C@H](OC(=O)[C@H](O)[C@@H](NC(=O)c4ccccc4)c4ccccc4)C(C)=C1C3(C)C)[C@]1(OC(C)=O)CO[C@@H]1C[C@@H]2O` [PTX, paclitaxel], in series [1], the IC50 was determined as 32 nM.

As usually defined, the IC50 is the concentration that inhibits the measured activity by half. As a reminder, the solubility is the dissolved amount per volume that the medium holds. A lower solubility goes with a poorly soluble substance.
